From patent publication US20230075521A1, “RESVERATROL PHARMACEUTICAL COMPOSITIONS AND METHODS OF USE THEREOF” (priority 2021, published 2023)
Several values for one entry are separate records, joined by “and”; a condition that tells them apart may be missing. Equal values may be shown once. Read-outs that look alike come from different tables or passages of the source.

What was measured:
[1] = Mouse PK study, resveratrol in brain; format: in vivo, CD-1 mice; details: male mice, single dose 50 mg/kg oral, 30 min
Protocol: (§1) For mouse PK studies, male CD-1 mice (Charles River Canada) were used. Animals were food fasted for 4 h prior to dosing and water fasted 1 h prior to dosing. […] At each time point (15 min, 30 min, 1 h, 4 h) 3 mice of each group were terminally bled via cardiac puncture under red light. Blood was collected into sodium-EDTA tubes under red light and spun at […] for 10 min at 6800×g. Plasma was collected and split into amber tubes. Both left and right brain were collected and snap-frozen in liquid nitrogen and stored at […] Drug concentrations were analyzed by liquid chromatography-mass spectrometry (LC-MS/MS) by KDM Laboratories Inc. For rat PK studies, male Sprague-Dawley rats (Charles River Canada) were used. […] Blood was collected under red light from the trunk at 30 min into K3EDTA tubes and centrifuged immediately at 4° C. for 10 min at 6800×g, and plasma collected into amber tubes. Brains were collected and snap-frozen in liquid nitrogen and stored at […] Drug concentration was analyzed by LC-MS/MS.

[2] = cited from earlier work
[3] = system: ERC cytokines and chemokines; assay: Entorhinal cortex (ERC) cytokine and chemokine levels (48-Plex ProcartaPlex, Luminex); format: in vivo, 3×Tg-AD mouse
Protocol: At study endpoints (age 15 months for sub-chronic study, age 13 months for long-term study), mice were anaesthetized with isoflurane and blood was collected by transcardial puncture. Blood was stored on ice and then centrifuged at 10,000×g at 4° C. for 10 min to collect serum and stored at −80° C. until use. The brain was then extracted and quickly dissected on ice to collect prefrontal cortex (PFC), hippocampus, entorhinal cortex (ERC), and cerebellum, which were immediately frozen in liquid nitrogen. The samples were stored at −80° C. until processed for RNA or protein extraction. For each mouse, brain regions from one hemisphere were used for RNA preparation and qPCR and sections from the other hemisphere were used for protein work including ELISAs.
Protein lysates were extracted by sonicating tissue in M-PER Mammalian Protein Extraction Reagent (Thermo Fisher Scientific) supplemented with protease inhibitor (Thermo Fisher Scientific) and phosphatase inhibitor (Thermo Fisher Scientific). Total protein was quantified using Pierce BCA Protein Assay Kit (Thermo Fisher Scientific) and read at 562 nm using EnVision (Perkin Elmer).
Human Aβ1-42, Aβ1-40, phosphorylated tau Ser 396, phosphorylated tau Thr181, and total tau were measured in brain tissue by enzyme linked immuno-sorbent assay (ELISA; Invitrogen by Thermo) and normalized to total protein. All the kits were used as per the manufacturer's instructions and measured using the EnVision® multimode plate reader (Perkin Elmer). Serum and brain tissue protein extracts were analyzed for cytokine and chemokine levels using the Immune Monitoring 48-Plex Mouse ProcartaPlex™ Panel (Invitrogen by Thermo) according to manufacturer's standard protocol and read using Luminex xMAP (multi-analyte profiling) technology.

[4] = Rat PK study, resveratrol in plasma at 30 min; format: in vivo; details: male, oral, 50 mg/kg, Sprague-Dawley rats, single dose, 30 min after treatment
Protocol: as §1

[5] = female 3×Tg-AD mice, 50 mg/kg oral, 9 months
[6] = female 3×Tg-AD mice, 50 mg/kg oral, 9 months, 50 mg/kg
[7] = male 3×Tg-AD mice, 50 mg/kg oral, 9 months
[8] = male 3×Tg-AD mice, 50 mg/kg oral, 9 months, 50 mg/kg

SMILES: Oc1ccc(/C=C/c2cc(O)cc(O)c2)cc1 [RSV, (trans-)resveratrol]
- Resveratrol accumulation in the brain [1]: not detected in the brain
- Cmax ([2]; 1 g encapsulated dose (Turner et al. 2015)): 85 ng/mL
- Cmax ([2]; 2.5 g micronized dose (Howells et al. 2011)): 1942 ng/mL
- AUC exposure, estimated ([2]; 3,000 mg/day, healthy volunteers, published data): 2100 ng·h/mL
- IFNg ERC level, change vs vehicle [3, 5]: -0.64 pg/mL
- IL-1b ERC level, change vs vehicle [3, 5]: -1.12 pg/mL
- IL-2 ERC level, change vs vehicle [3, 5]: 18.07 pg/mL
- IL-2RA ERC level, change vs vehicle [3, 5]: -0.95 pg/mL
- IL-3 ERC level, change vs vehicle [3, 5]: -0.34 pg/mL
- IL-5 ERC level, change vs vehicle [3, 5]: -6.60 pg/mL
- IL-9 ERC level, change vs vehicle [3, 5]: 7.25 pg/mL
- IL- 10 ERC level, change vs vehicle [3, 5]: 0.54 pg/mL
- IL-12p70 ERC level, change vs vehicle [3, 5]: 1.75 pg/mL
- IL-13 ERC level, change vs vehicle [3, 5]: 1.74 pg/mL
- IL-17A ERC level, change vs vehicle [3, 5]: 0.69 pg/mL
- IL-22 ERC level, change vs vehicle [3, 5]: -0.13 pg/mL
- IL-25/IL-17 ERC level, change vs vehicle [3, 5]: -23.30 pg/mL
- IL-27 ERC level, change vs vehicle [3, 5]: -0.87 pg/mL
- IL-33 ERC level, change vs vehicle [3, 5]: -56.09 pg/mL
- LIX ERC level, change vs vehicle [3, 5]: -12.67 pg/mL
- M-CSF ERC level, change vs vehicle [3, 5]: -0.32 pg/mL
- MCP-3 ERC level, change vs vehicle [3, 5]: 1.94 pg/mL
- MIP-2 ERC level, change vs vehicle [3, 5]: -2.59 pg/mL
- RANTES ERC level, change vs vehicle [3, 5]: -1.97 pg/mL
- TNFa ERC level, change vs vehicle [3, 5]: -10.12 pg/mL
- VEGF-A ERC level, change vs vehicle [3, 5]: 4.80 pg/mL
- sRANKL ERC level, change vs vehicle [3, 5]: 0.70 pg/mL
- IL-6 ERC level, change vs vehicle [3, 6]: 5.44 ± 2.1 pg/mL and 5.44 pg/mL
- IL-7 ERC level, change vs vehicle [3, 6]: 40.12 ± 15.04 pg/mL and 40.12 pg/mL
- IL-18 ERC level, change vs vehicle [3, 6]: -84.91 ± 35.55 pg/mL and -84.91 pg/mL
- IL-19 ERC level, change vs vehicle [3, 6]: 105.7 ± 22.58 pg/mL and 105.70 pg/mL
- IL-23 ERC level, change vs vehicle [3, 6]: 42.53 ± 10.42 pg/mL and 42.53 pg/mL
- IL-28 ERC level, change vs vehicle [3, 6]: 146.9 ± 34.42 pg/mL and 146.90 pg/mL
- IP-10 ERC level, change vs vehicle [3, 6]: 21.13 ± 4.32 pg/mL and 21.13 pg/mL
- IFNg ERC level, change vs vehicle [3, 7]: 1.51 pg/mL
- IL-1b ERC level, change vs vehicle [3, 7]: 0.97 pg/mL
- IL-2 ERC level, change vs vehicle [3, 7]: 31.55 pg/mL
- IL-3 ERC level, change vs vehicle [3, 7]: 0.18 pg/mL
- IL-5 ERC level, change vs vehicle [3, 7]: 3.37 pg/mL
- IL-6 ERC level, change vs vehicle [3, 7]: 2.70 pg/mL
- IL-7 ERC level, change vs vehicle [3, 7]: 41.08 pg/mL
- IL-9 ERC level, change vs vehicle [3, 7]: 19.29 pg/mL
- IL-12p70 ERC level, change vs vehicle [3, 7]: 0.61 pg/mL
- IL-13 ERC level, change vs vehicle [3, 7]: 5.16 pg/mL
- IL-17A ERC level, change vs vehicle [3, 7]: 2.77 pg/mL
- IL-18 ERC level, change vs vehicle [3, 7]: 42.33 pg/mL
- IL-19 ERC level, change vs vehicle [3, 7]: 104.30 pg/mL
- IL-22 ERC level, change vs vehicle [3, 7]: 2.18 pg/mL
- IL-23 ERC level, change vs vehicle [3, 7]: 41.51 pg/mL
- IL-25/IL-17 ERC level, change vs vehicle [3, 7]: 15.36 pg/mL
- IL-27 ERC level, change vs vehicle [3, 7]: 2.75 pg/mL
- IL-28 ERC level, change vs vehicle [3, 7]: 130.90 pg/mL
- IL-33 ERC level, change vs vehicle [3, 7]: 64.64 pg/mL
- IP-10 ERC level, change vs vehicle [3, 7]: 13.80 pg/mL
- LIX ERC level, change vs vehicle [3, 7]: 16.39 pg/mL
- M-CSF ERC level, change vs vehicle [3, 7]: 0.50 pg/mL
- MCP-3 ERC level, change vs vehicle [3, 7]: 0.76 pg/mL
- RANTES ERC level, change vs vehicle [3, 7]: 1.40 pg/mL
- TNFa ERC level, change vs vehicle [3, 7]: 23.73 pg/mL
- VEGF-A ERC level, change vs vehicle [3, 7]: 3.55 pg/mL
- sRANKL ERC level, change vs vehicle [3, 7]: 2.59 pg/mL
- IL-2RA ERC level, change vs vehicle [3, 8]: 0.77 ± 0.043 pg/mL and 0.77 pg/mL
- MIP-2 ERC level, change vs vehicle [3, 8]: 7.51 ± 2.55 pg/mL and 7.51 pg/mL
- IL-9 in ERC, increase vs vehicle ([3]; males and females combined): 65.4 ± 25.69 pg/mL
- concentration at 30 min [4]: 180 ± 33.6 ng/mL
